Source: the supplement of paper PMC10307832

Columns and labels:
Test in all cases: relative viability (nuclei count vs DMSO), 5 days (fraction); higher = more cells survive
ALW-II-49-7 + Navitoclax = compound: Cc1ccc(C(=O)Nc2cccc(C(F)(F)F)c2)cc1Nc1cncc(C(N)=O)c1 [ALW-II-49-7] + CC1(C)CCC(c2ccc(Cl)cc2)=C(CN2CCN(c3ccc(C(=O)NS(=O)(=O)c4ccc(N[C@H](CCN5CCOCC5)CSc5ccccc5)c(S(=O)(=O)C(F)(F)F)c4)cc3)CC2)C1 [Navitoclax] (partner 0.5 µM)
Outline: (§1)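 Cells from lung cancer lines were seeded into 1536-well plates and, one day later, dosed by pin tool. Treatments were either a single drug or a fixed dose of an anchor drug with five library-drug doses (not always all listed) in √10 steps. After 5 days, nuclei were stained in a one-step fixation (final 0.05% Triton X-100, 1% formaldehyde, 1 ug/ml Hoechst) and counted on 4× images, and relative viability is the treated-to-vehicle nuclei ratio, as the median of duplicate plates.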

ALW-II-49-7 + Alpelisib = compound: Cc1ccc(C(=O)Nc2cccc(C(F)(F)F)c2)cc1Nc1cncc(C(N)=O)c1 [ALW-II-49-7] + Cc1nc(NC(=O)N2CCC[C@H]2C(N)=O)sc1-c1ccnc(C(C)(C)C(F)(F)F)c1 [Alpelisib] (partner 2 µM)
Outline: as §1

Dasatinib + Luminespib = compound: Cc1nc(Nc2ncc(C(=O)Nc3c(C)cccc3Cl)s2)cc(N2CCN(CCO)CC2)n1 [Dasatinib] + CCNC(=O)c1noc(-c2cc(C(C)C)c(O)cc2O)c1-c1ccc(CN2CCOCC2)cc1 [Luminespib] (partner 0.01 µM)
Outline: as §1

Dasatinib + Vorinostat = compound: Cc1nc(Nc2ncc(C(=O)Nc3c(C)cccc3Cl)s2)cc(N2CCN(CCO)CC2)n1 [Dasatinib] + O=C(CCCCCCC(=O)Nc1ccccc1)NO [Vorinostat] (partner 1 µM)
Outline: as §1

| Cell Line | relative viability (ALW-II-49-7 + Navitoclax; first compound 0.08 µM) | relative viability (ALW-II-49-7 + Navitoclax; first compound 0.253 µM) | relative viability (ALW-II-49-7 + Navitoclax; first compound 0.8 µM) | relative viability (ALW-II-49-7 + Navitoclax; first compound 2.53 µM) | relative viability (ALW-II-49-7 + Navitoclax; first compound 8 µM) | relative viability (ALW-II-49-7 + Alpelisib; first compound 0.08 µM) | relative viability (ALW-II-49-7 + Alpelisib; first compound 0.253 µM) | relative viability (ALW-II-49-7 + Alpelisib; first compound 0.8 µM) | relative viability (ALW-II-49-7 + Alpelisib; first compound 2.53 µM) | relative viability (ALW-II-49-7 + Alpelisib; first compound 8 µM) | relative viability (Dasatinib + Luminespib; first compound 0.005 µM) | relative viability (Dasatinib + Luminespib; first compound 0.01581 µM) | relative viability (Dasatinib + Luminespib; first compound 0.05 µM) | relative viability (Dasatinib + Luminespib; first compound 0.1581 µM) | relative viability (Dasatinib + Luminespib; first compound 0.5 µM) | relative viability (Dasatinib + Vorinostat; first compound 0.005 µM) | relative viability (Dasatinib + Vorinostat; first compound 0.01581 µM) | relative viability (Dasatinib + Vorinostat; first compound 0.05 µM) | relative viability (Dasatinib + Vorinostat; first compound 0.1581 µM) | relative viability (Dasatinib + Vorinostat; first compound 0.5 µM) |
| --- | --- | --- | --- | --- | --- | --- | --- | --- | --- | --- | --- | --- | --- | --- | --- | --- | --- | --- | --- | --- |
| NCI-H727 | 0.611 | 0.447 | 0.482 | 0.53 | 0.552 | 0.716 | 0.572 | 0.538 | 0.678 | 0.541 | 0.255 | 0.425 | 0.334 | 0.237 | 0.244 | 1.18 | 0.97 | 0.841 | 0.871 | 0.264 |
| NCI-H838 | 1.12 | 1.42 | 1.17 | 1.14 | 1.17 | 0.847 | 1.13 | 1 | 1.13 | 0.987 | 0.265 | 0.24 | 0.196 | 0.189 | 0.158 | 0.678 | 0.632 | 0.584 | 0.422 | 0.348 |
| H3255 | 0.581 | 0.541 | 0.375 | 0.313 | 0.538 | 0.828 | 0.743 | 0.73 | 0.403 | 0.511 | 0.919 | 0.901 | 0.793 | 0.919 | 0.371 | 0.826 | 0.789 | 0.777 | 0.828 | 0.37 |
| EPLC-272H | 1.16 | 1.03 | 1.04 | 1.06 | 1.19 | 0.92 | 0.879 | 1.02 | 1.08 | 1.06 | 0.679 | 0.392 | 0.512 | 0.121 | 0.111 | 0.539 | 0.401 | 0.335 | 0.276 | 0.162 |
